Assay results published in ChEMBL document CHEMBL4814057, “4-4-(Anilinomethyl)-3-[4-(trifluoromethyl)phenyl]-1H-pyrazol-1-ylbenzoic acid derivatives as potent anti-gram-positive bacterial agents” (Eur J Med Chem, 2021).
In brackets after ≈: the same amount, converted by molar mass.

Key:
Enterococcus faecium [1] = assay: Antimicrobial activity against vancomycin-resistant Enterococcus faecium clinical isolate 1091282 by CLSI-based broth microdilution assay; type: functional
Enterococcus faecium [2] = assay: Antimicrobial activity against vancomycin-resistant Enterococcus faecium ATCC 700221 assessed as bacterial growth inhibitions by CLSI protocol based microdilution method; type: functional

Q: What does the source list for `O=C(O)c1ccc(-n2cc(CNc3cc(F)cc(C(F)(F)F)c3)c(-c3ccc(C(F)(F)F)cc3)n2)cc1`?
A: MIC (Enterococcus faecium [1]): 2 µg/mL (≈ 3.82 µM); MIC (Enterococcus faecium [2]): 0.78 µg/mL (≈ 1.49 µM)
